{"source": "patent US8420060B2", "about": "“Pharmaceutical aerosol formulations of formoterol and beclometasone dipropionate” (Chiesi Farmaceutici S.p.A., priority 2009, dated 2013)", "key": {"[1]": {"test": "Aerosol performances by Andersen Cascade Impactor (Eur. Pharm. 2.09.18), HPLC quantification", "format": "physicochemical", "conditions": "Example 5 formulation, mean n = 2; for Delivered Dose: 63 μl valve, nominal 6 μg formoterol / 50 μg BDP per actuation; for Fine particle dose: ACI S3 to filter, particles ≦4.7 microns; for Fine particle fraction: ratio respirable dose / delivered dose", "method": "This formulation was filled into an aluminum canister under pressure and fitted with a metering valve having a 63 μl metering chamber.\nQuantification of beclometasone dipropionate (BDP) and formoterol fumarate dehydrate (FF) was performed using a HPLC method. The following parameters were determined: • i) delivered dose is calculated from the cumulative deposition in the ACI, divided by the number of actuations per experiment; • ii) respirable dose (fine particle dose=FPD) is obtained from the deposition from Stages 3 (S3) to filter (AF) of the ACI, corresponding to particles of diameter ≦4.7 microns, divided by the number of actuations per experiment; • iii) respirable fraction (fine particle fraction=FPF) which is the percent ratio between the respirable dose and the delivered dose; • iv) mass median aerodynamic diameter (MMAD) which is the diameter around which the mass aerodynamic diameters of the emitted particles are distributed equally; and • v) Geometric standard deviation (GSD) which is a measure of the spread of the aerodynamic particle size distribution."}, "[2]": {"test": "Storage (chemical) stability of HFA134a/ethanol pMDI solution", "format": "physicochemical", "conditions": "BDP in ethanol/HFA134a mixture, room temperature", "method": "However, although it has the apparent pH adjusted according to the teaching of WO 01/89480 for improving its chemical stability, due to the limited stability of formoterol in solution, said formulation can be stored for no longer than 15 months at a refrigerator temperature (from +2 to +8° C.) and for no longer than 5 months at room temperature."}}, "note": "Where a name gives a salt, the structure may show the parent alone. Read-outs that look alike come from different tables or passages of the source."}
{"smiles": "COc1ccc(C[C@@H](C)NC[C@H](O)c2ccc(O)c(NC=O)c2)cc1", "note": "(racemic) [formoterol fumarate dihydrate, 2′-hydroxy-5′-[(RS)-1-hydroxy-2{[(RS)-p-methoxy-α-methylphenethyl]amino}ethyl]formanilide]", "values": [{"measurement": "change of formoterol fumarate dihydrate solubility in the presence of BDP", "setting": "HFA227:ethanol 92.5:7.5 (w/w)", "value": "does not change"}, {"measurement": "change of formoterol fumarate dihydrate solubility in the presence of BDP", "setting": "HFA227:ethanol 97.3:2.7 (w/w)", "value": "does not change"}, {"measurement": "Delivered Dose", "setting": "[1]", "value": 3.9, "unit": "µg"}, {"measurement": "Fine particle dose", "setting": "[1]", "value": 2.3, "unit": "µg"}, {"measurement": "GSD", "setting": "[1]", "value": 1.5}, {"measurement": "MMAD", "setting": "[1]", "value": 2.0, "unit": "μm"}, {"measurement": "Fine particle fraction", "setting": "[1]", "value": 59.3, "unit": "%"}]}
{"smiles": "CCC(=O)OCC(=O)[C@@]1(OC(=O)CC)[C@@H](C)C[C@H]2[C@@H]3CCC4=CC(=O)C=C[C@]4(C)[C@@]3(Cl)[C@@H](O)C[C@@]21C", "note": "[BDP, (8S,9R,10S,11S,13S,14S,16S,17R)-9-chloro-11-hydroxy-10,13,16-trimethyl-3-oxo-17-[2-(propionyloxy)acetyl]-6,7,8,9,10,11,12,13,14,15,16,17-dodecahydro-3H-cyclopenta[a]phenanthren-17-yl propionate]", "values": [{"measurement": "storage time without significant degradation", "setting": "[2]", "value": "at least 35 months"}, {"measurement": "Delivered Dose", "setting": "[1]", "value": 46.0, "unit": "µg"}, {"measurement": "Fine particle dose", "setting": "[1]", "value": 30.0, "unit": "µg"}, {"measurement": "GSD", "setting": "[1]", "value": 2.2}, {"measurement": "MMAD", "setting": "[1]", "value": 1.1, "unit": "μm"}, {"measurement": "Fine particle fraction", "setting": "[1]", "value": 64.0, "unit": "%"}]}
